Measurements as given in patent US11497212B2, “Substituted thiophenyl uracils, salts thereof and the use thereof as herbicidal agents” (Syngenta Crop Protection AG, priority 2017, dated 2022).

System: Glycine max
Assay: Crop compatibility pre-emergence (greenhouse pot trial)
Type: in vivo
Details: application rate 20 g/ha, effect vs untreated controls
In short: (§1)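 Seeds sown in pots and covered with soil; compounds formulated as WP or EC applied pre-emergence to the soil surface as aqueous suspension/emulsion with 0.5% additive at 600 L/ha water. Plants kept in greenhouse; crop damage scored visually after about 3 weeks as % versus untreated controls (0% = like control, 100% = dead).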

Row | Glycine max (Efficacy in %) | SMILES
1 | 0% | COCCCOC(=O)C(C)Sc1cc(-n2c(=O)cc(C(F)(F)F)n(C)c2=O)c(F)cc1Cl (stereo not shown) [I.1-26]

System: Zea mays
Assay: as above
Type: in vivo
Details: application rate 80 g/ha, effect vs untreated controls
In short: as §1

Row | Zea mays (Efficacy in %) | SMILES
2 | 10% | COCCCOC(=O)C(C)Sc1cc(-n2c(=O)cc(C(F)(F)F)n(C)c2=O)c(F)cc1Cl (stereo not shown) [I.1-26]

System: Amaranthus retroflexus
Assay: Herbicidal action pre-emergence (greenhouse pot trial)
Type: in vivo
Details: application rate 320 g/ha, scored after about 3 weeks
In short: (§2)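 Application rates of 320 g/ha or lower were used, with compounds delivered onto covering soil before weed emergence. After roughly three weeks in the greenhouse, damage was judged by eye as a percentage versus untreated plants.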

Row | SMILES | Amaranthus retroflexus (Efficacy in %)
3 | COCCCOC(=O)C(C)Sc1cc(-n2c(=O)cc(C(F)(F)F)n(C)c2=O)c(F)cc1Cl (stereo not shown) [I.1-26] | 100%

System: Setaria viridis
Assay: as above
Type: in vivo
Details: application rate 320 g/ha, scored after about 3 weeks
In short: as §2

Row | SMILES | Setaria viridis (Efficacy in %)
4 | COCCCOC(=O)C(C)Sc1cc(-n2c(=O)cc(C(F)(F)F)n(C)c2=O)c(F)cc1Cl (stereo not shown) [I.1-26] | 100%

System: Veronica persica
Assay: as above
Type: in vivo
Details: application rate 320 g/ha
In short: as §2

Row | SMILES | Veronica persica (Efficacy in %)
5 | COCCCOC(=O)C(C)Sc1cc(-n2c(=O)cc(C(F)(F)F)n(C)c2=O)c(F)cc1Cl (stereo not shown) [I.1-26] | 100%

System: Avena fatua
Assay: as above
Type: in vivo
Details: application rate 320 g/ha
In short: as §2

Row | SMILES | Avena fatua (Efficacy in %)
6 | COCCCOC(=O)C(C)Sc1cc(-n2c(=O)cc(C(F)(F)F)n(C)c2=O)c(F)cc1Cl (stereo not shown) [I.1-26] | 80%

System: Abutilon theophrasti
Assay: as above
Type: in vivo
Details: application rate 320 g/ha, scored after about 3 weeks
In short: as §2

Row | SMILES | Abutilon theophrasti (Efficacy in %)
7 | COCCCOC(=O)C(C)Sc1cc(-n2c(=O)cc(C(F)(F)F)n(C)c2=O)c(F)cc1Cl (stereo not shown) [I.1-26] | 100%

System: Matricaria inodora
Assay: as above
Type: in vivo
Details: application rate 320 g/ha, scored after about 3 weeks
In short: as §2

Row | SMILES | Matricaria inodora (Efficacy in %)
8 | COCCCOC(=O)C(C)Sc1cc(-n2c(=O)cc(C(F)(F)F)n(C)c2=O)c(F)cc1Cl (stereo not shown) [I.1-26] | 100%

System: Echinochloa crus-galli
Assay: as above
Type: in vivo
Details: application rate 320 g/ha, scored after about 3 weeks
In short: as §2

Row | SMILES | Echinochloa crus-galli (Efficacy in %)
9 | COCCCOC(=O)C(C)Sc1cc(-n2c(=O)cc(C(F)(F)F)n(C)c2=O)c(F)cc1Cl (stereo not shown) [I.1-26] | 100%

System: Viola tricolor
Assay: as above
Type: in vivo
Details: application rate 320 g/ha, scored after about 3 weeks
In short: as §2

Row | SMILES | Viola tricolor (Efficacy in %)
10 | COCCCOC(=O)C(C)Sc1cc(-n2c(=O)cc(C(F)(F)F)n(C)c2=O)c(F)cc1Cl (stereo not shown) [I.1-26] | 100%

System: Hordeum murinum
Assay: as above
Type: in vivo
Details: application rate 320 g/ha
In short: as §2

Row | SMILES | Hordeum murinum (Efficacy in %)
11 | COCCCOC(=O)C(C)Sc1cc(-n2c(=O)cc(C(F)(F)F)n(C)c2=O)c(F)cc1Cl (stereo not shown) [I.1-26] | 100%

System: Lolium rigidum
Assay: as above
Type: in vivo
Details: application rate 320 g/ha
In short: as §2

Row | SMILES | Lolium rigidum (Efficacy in %)
12 | COCCCOC(=O)C(C)Sc1cc(-n2c(=O)cc(C(F)(F)F)n(C)c2=O)c(F)cc1Cl (stereo not shown) [I.1-26] | 90%

System: Digitaria sanguinalis
Assay: as above
Type: in vivo
Details: application rate 80 g/ha
In short: as §2

Row | SMILES | Digitaria sanguinalis (Efficacy in %)
13 | COCCCOC(=O)C(C)Sc1cc(-n2c(=O)cc(C(F)(F)F)n(C)c2=O)c(F)cc1Cl (stereo not shown) [I.1-26] | 100%

System: Stellaria media
Assay: as above
Type: in vivo
Details: application rate 320 g/ha, scored after about 3 weeks
In short: as §2

Row | SMILES | Stellaria media (Efficacy in %)
14 | COCCCOC(=O)C(C)Sc1cc(-n2c(=O)cc(C(F)(F)F)n(C)c2=O)c(F)cc1Cl (stereo not shown) [I.1-26] | 100%

System: Pharbitis purpurea
Assay: as above
Type: in vivo
Details: application rate 320 g/ha
In short: as §2

Row | SMILES | Pharbitis purpurea (Efficacy in %)
15 | COCCCOC(=O)C(C)Sc1cc(-n2c(=O)cc(C(F)(F)F)n(C)c2=O)c(F)cc1Cl (stereo not shown) [I.1-26] | 100%

System: Triticum aestivum
Assay: Crop compatibility post-emergence (greenhouse pot trial)
Type: in vivo
Details: application rate 5 g/ha
In short: (§3)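 Greenhouse pot trial: sandy loam, sown seeds, treatment at one-leaf stage 2–3 wk after sowing. Spray: aqueous WP/EC preparation, 0.5% additive, 600 L/ha. Readout: visual % effect after ~3 wk relative to untreated plants.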

Row | Triticum aestivum (Efficacy in %) | SMILES
16 | 20% | COCCCOC(=O)C(C)Sc1cc(-n2c(=O)cc(C(F)(F)F)n(C)c2=O)c(F)cc1Cl (stereo not shown) [I.1-26]

System: Oryza sativa
Assay: as above
Type: in vivo
Details: application rate 5 g/ha
In short: as §3

Row | Oryza sativa (Efficacy in %) | SMILES
17 | 10% | COCCCOC(=O)C(C)Sc1cc(-n2c(=O)cc(C(F)(F)F)n(C)c2=O)c(F)cc1Cl (stereo not shown) [I.1-26]

System: Amaranthus retroflexus
Assay: Herbicidal action post-emergence (greenhouse pot trial)
Type: in vivo
Details: application rate 80 g/ha, scored visually after about 3 weeks vs untreated controls
In short: (§4)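 Sowing in sandy loam, then 2–3 weeks of controlled greenhouse growth. Next, one-leaf-stage plants received a foliar spray of the WP- or EC-formulated compound with 0.5% additive (600 L/ha water, application rate of 80 g/ha or below). Finally, after about 3 weeks under optimal conditions, effect was judged by eye against controls.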

Row | SMILES | Amaranthus retroflexus (Efficacy in %)
18 | COCCCOC(=O)C(C)Sc1cc(-n2c(=O)cc(C(F)(F)F)n(C)c2=O)c(F)cc1Cl (stereo not shown) [I.1-26] | 100%

System: Setaria viridis
Assay: as above
Type: in vivo
Details: application rate 80 g/ha, scored visually after about 3 weeks vs untreated controls
In short: as §4

Row | SMILES | Setaria viridis (Efficacy in %)
19 | COCCCOC(=O)C(C)Sc1cc(-n2c(=O)cc(C(F)(F)F)n(C)c2=O)c(F)cc1Cl (stereo not shown) [I.1-26] | 100%

System: Veronica persica
Assay: as above
Type: in vivo
Details: application rate 80 g/ha
In short: as §4

Row | SMILES | Veronica persica (Efficacy in %)
20 | COCCCOC(=O)C(C)Sc1cc(-n2c(=O)cc(C(F)(F)F)n(C)c2=O)c(F)cc1Cl (stereo not shown) [I.1-26] | 100%

System: Abutilon theophrasti
Assay: as above
Type: in vivo
Details: application rate 80 g/ha, scored visually after about 3 weeks vs untreated controls
In short: as §4

Row | SMILES | Abutilon theophrasti (Efficacy in %)
21 | COCCCOC(=O)C(C)Sc1cc(-n2c(=O)cc(C(F)(F)F)n(C)c2=O)c(F)cc1Cl (stereo not shown) [I.1-26] | 100%

System: Polygonum convolvulus
Assay: as above
Type: in vivo
Details: application rate 80 g/ha, scored visually after about 3 weeks vs untreated controls
In short: as §4

Row | SMILES | Polygonum convolvulus (Efficacy in %)
22 | COCCCOC(=O)C(C)Sc1cc(-n2c(=O)cc(C(F)(F)F)n(C)c2=O)c(F)cc1Cl (stereo not shown) [I.1-26] | 100%

System: Matricaria inodora
Assay: as above
Type: in vivo
Details: application rate 80 g/ha, scored visually after about 3 weeks vs untreated controls
In short: as §4

Row | SMILES | Matricaria inodora (Efficacy in %)
23 | COCCCOC(=O)C(C)Sc1cc(-n2c(=O)cc(C(F)(F)F)n(C)c2=O)c(F)cc1Cl (stereo not shown) [I.1-26] | 100%

System: Echinochloa crus-galli
Assay: as above
Type: in vivo
Details: application rate 80 g/ha, scored visually after about 3 weeks vs untreated controls
In short: as §4

Row | SMILES | Echinochloa crus-galli (Efficacy in %)
24 | COCCCOC(=O)C(C)Sc1cc(-n2c(=O)cc(C(F)(F)F)n(C)c2=O)c(F)cc1Cl (stereo not shown) [I.1-26] | 100%

System: Viola tricolor
Assay: as above
Type: in vivo
Details: application rate 80 g/ha
In short: as §4

Row | SMILES | Viola tricolor (Efficacy in %)
25 | COCCCOC(=O)C(C)Sc1cc(-n2c(=O)cc(C(F)(F)F)n(C)c2=O)c(F)cc1Cl (stereo not shown) [I.1-26] | 100%

System: Hordeum murinum
Assay: as above
Type: in vivo
Details: application rate 80 g/ha, scored visually after about 3 weeks vs untreated controls
In short: as §4

Row | SMILES | Hordeum murinum (Efficacy in %)
26 | COCCCOC(=O)C(C)Sc1cc(-n2c(=O)cc(C(F)(F)F)n(C)c2=O)c(F)cc1Cl (stereo not shown) [I.1-26] | 90%

System: Alopecurus myosuroides
Assay: as above
Type: in vivo
Details: application rate 80 g/ha, scored visually after about 3 weeks vs untreated controls
In short: as §4

Row | SMILES | Alopecurus myosuroides (Efficacy in %)
27 | COCCCOC(=O)C(C)Sc1cc(-n2c(=O)cc(C(F)(F)F)n(C)c2=O)c(F)cc1Cl (stereo not shown) [I.1-26] | 80%

System: Lolium rigidum
Assay: as above
Type: in vivo
Details: application rate 80 g/ha, scored visually after about 3 weeks vs untreated controls
In short: as §4

Row | SMILES | Lolium rigidum (Efficacy in %)
28 | COCCCOC(=O)C(C)Sc1cc(-n2c(=O)cc(C(F)(F)F)n(C)c2=O)c(F)cc1Cl (stereo not shown) [I.1-26] | 90%

System: Digitaria sanguinalis
Assay: as above
Type: in vivo
Details: application rate 80 g/ha
In short: as §4

Row | SMILES | Digitaria sanguinalis (Efficacy in %)
29 | COCCCOC(=O)C(C)Sc1cc(-n2c(=O)cc(C(F)(F)F)n(C)c2=O)c(F)cc1Cl (stereo not shown) [I.1-26] | 100%

System: Stellaria media
Assay: as above
Type: in vivo
Details: application rate 80 g/ha, scored visually after about 3 weeks vs untreated controls
In short: as §4

Row | SMILES | Stellaria media (Efficacy in %)
30 | COCCCOC(=O)C(C)Sc1cc(-n2c(=O)cc(C(F)(F)F)n(C)c2=O)c(F)cc1Cl (stereo not shown) [I.1-26] | 100%

System: Pharbitis purpurea
Assay: as above
Type: in vivo
Details: application rate 80 g/ha
In short: as §4

Row | SMILES | Pharbitis purpurea (Efficacy in %)
31 | COCCCOC(=O)C(C)Sc1cc(-n2c(=O)cc(C(F)(F)F)n(C)c2=O)c(F)cc1Cl (stereo not shown) [I.1-26] | 100%
